# Measurements from US8158589B2, “Peptides with the capacity to bind to transforming growth factor β1 (TGF-β1)” (Proyecto Biomedicine Cima, S.L., priority 2003, dated 2012).
# Ends that are not written are not given here.
# What was measured:
# TGF-β1 [1] = target: T1, TGF-β1 (Homo sapiens, UniProt P01137); design: purchased R&D Systems; host or cells: added to IMR-90 human lung fibroblasts; conditions: lung fibroblasts, Dotor et al. Cytokine 2007; cited from earlier work
# Target sequence in this assay (P01137 279-390 limits assumed): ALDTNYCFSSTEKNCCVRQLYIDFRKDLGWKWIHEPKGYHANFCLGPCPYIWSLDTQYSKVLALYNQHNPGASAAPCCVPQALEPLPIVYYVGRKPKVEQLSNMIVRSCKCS
# TGF-β1 [2] = target: T1, TGF-β1; assay: Western Blot of p-Smad2, Smad2/3 and Smad7 in primary culture of rabbit corneal fibroblasts; assay type: cell-based; design: host or cells: added to a primary culture of rabbit corneal fibroblasts; conditions: primary culture, TGF-β1 and peptide
# Description: Therefore, Western Blot and immunofluorescence studies were conducted to determine, from cells extracted from the in vivo studies, the signaling pathway used by the peptides administered topically. It should be emphasized that said studies were conducted on fibroblasts from rabbit cornea and not from rat cornea. This decision was made due to the difficulty entailed in isolating fibroblasts from rodent eyes.
# Since the scientific literature repeatedly describes the TGF-β1 signaling pathways, the decision was made to go into depth in such pathways by means of the techniques described in the methodology section. Said pathways involve the study of the Smad protein family, specifically the study of the isoforms Smad2, 2/3 and 7.
# To that end, protein extracts obtained from the primary culture of rabbit fibroblasts were treated with TGF-β1 at concentrations of 0, 3 and 5 ng/ml and, 50 and 200 μg/ml of peptide p17 and p144.
# Target sequence in this assay (P01137 279-390 limits assumed, species assumed): as the sequence (P01137 279-390 limits assumed) above
# TGF-β1 [3] = target: T1, TGF-β1; assay type: cell-based; design: purchased Roche; host or cells: added to Mv-1-Lu (CCL-64) mink lung epithelial cells
# From the text: The cell line Mv-1-Lu (CCL-64, […], Virginia, USA) derives from mink pulmonary epithelium, grows as a monolayer, and responds to the presence of TGF-β1 by decreasing its proliferation (FIG. 5). Thus, the peptide-mediated inhibition of this cytokine is able to restore cell growth and reflects the capacity of the different peptides to inhibit the biological activity of TGF-β1 in vitro. The peptides tested were obtained by peptide synthesis, in accordance to conventional procedures (Merrifield R B. J Am Chem Soc 1963; 85:2149-2154; Atherton E et al. J Chem Soc Perkin Trans 1981; 1:538-546).
# The Mv-1-Lu cells are cultured to confluence in complete medium [RPMI-1640 supplemented with L-glutamine, sodium pyruvate, antibiotics and 10% fetal bovine serum (FBS)] at 37° C. and in 5% CO2 in 162 cm^2 bottles (Costar Corporation, CA, USA). Following trypsinization, the cells are cultured in 200 μl of complete medium in 96-well plates at an initial density of 5,000 cells/well at 37° C. and in 5% CO2 during 6 hours to ensure adhesion. Then, different concentrations of the peptides to be tested are added, starting from 200 μg/ml, and following 200 pg/ml of TGF-β1 (Roche) are added. After 12 hours of incubation 1 μCi of methyl-3H-thymidine (Amersham Life Science, Buckinghamshire, United Kingdom) is added per well in 25 μl of clean medium (RPMI-1640). The plate is incubated for 12 more hours under the same conditions. Finally, the cells are harvested (Filtermate 196 Harvester, Packard), transferring the tritiated thymidine, incorporated in the course of DNA synthesis, to plates (UniFilter-96 GF/C®, Perkin Elmer). Following the addition of scintillation fluid, the radioactivity was quantified using a scintillation counter (Top Count, Microplate Scintillation Counter, Packard). As positive and negative control, use was made of the incorporation of tritiated thymidine in the absence and presence of TGF-β1, respectively. The inhibition of TGF-β1 activity in this test was calculated based on the following formula: […]
# The negative control represents the incorporation of tritiated thymidine in the presence of TGF-β1 but in the absence of peptide, whereas the positive control refers to the incorporation of tritiated thymidine in the absence of TGF-β1 and peptide. Thus, according to the capacity of the peptides to revert the cytokine repressor effect on Mv-1-Lu cell line proliferation, percentage of TGF-β1 biological activity inhibition by the peptides can be measured (Table 2).
# Comparisons have been made of the activity of truncated peptides (derived from peptide sequence SEQ ID NO: 17) versus the complete sequence, in terms of the capacity to revert the suppressor effect of TGF-β1 upon proliferation of the Mv-1-Lu cell line. To this effect, and to determine the minimum sequence of peptide SEQ ID NO: 17 capable of inhibiting the biological activity of TGF-β1 in vitro, truncated versions of this peptide were synthesized, with truncation at the N-terminal end, C-terminal end or in both ends of the molecule. The peptides tested were obtained by peptide synthesis following conventional procedures (Merrifield R B. J Am Chem Soc 1963; 85:2149-2154; Atherton E et al. J Chem Soc Perkin Trans 1981; 1:538-546). Following the same methodology described in Example 2, the activity of truncated peptides versus the complete sequence of the peptide SEQ ID NO: 17 was quantified, in terms of a proliferation assay of the Mv-1-Lu cell line.
# Target sequence in this assay (P01137 279-390 limits assumed, species assumed): as the sequence (P01137 279-390 limits assumed) above
sequence,measurement,setting,value
"KRIWFIPRSSWYERA [SEQ ID NO: 17, KRIWFIPRSSWYERA]",Smad2 phosphorylation induced by TGF-β1,TGF-β1 [1],decreased
same,expression of Smad 2/3,TGF-β1 [2],not affected
same,expression of Smad 7,TGF-β1 [2],not modified
same,% Inhibition of in vitro TGF-β1 biological activity,TGF-β1 [3],28.5%
